pKi: −log10 of the molar value. Read-outs that look alike come from different tables or passages of the source.
What was measured:
hCA IX = hCA IX (Homo sapiens, UniProt Q16790); experiment: stopped flow CO2 hydrase assay, hCA IX inhibition; conditions: for Ki: read-out: Ki (nM) hCAIX, Table 2, thioureas 6a-y, recombinant enzyme, 15 min preincubation, mean of at least three determinations
Method: (§1) An Applied Photophysics stopped-flow instrument has been used for assaying the CA catalyzed CO2 hydration activity using the Khalifah procedure [23]. The used indicator was phenol red (0.2 mM), the absorbance maximum was of 557 nm, and the buffer was 20 mM Hepes (pH 7.5), whereas 20 mM Na2SO4 were employed for maintaining the ionic strength constant. […] Uncatalyzed rates were subtracted from the observed total rates. […] Inhibitor and enzyme solutions were preincubated together for 15 min, for assuring the formation of the E–I complex. The inhibition constants were obtained by non-linear least squares using the Cheng–Prusoff equation, as reported earlier [24, 25, 26] and represent the mean from at least three different determinations.

hCA I = hCA I (Homo sapiens, UniProt P00915); experiment: stopped flow CO2 hydrase assay, hCA I inhibition; conditions: for Ki: read-out: Ki (nM) hCAI, Table 2, thioureas 6a-y, recombinant enzyme, 15 min preincubation, mean of at least three determinations
hCA I, sequence (P00915 whole entry): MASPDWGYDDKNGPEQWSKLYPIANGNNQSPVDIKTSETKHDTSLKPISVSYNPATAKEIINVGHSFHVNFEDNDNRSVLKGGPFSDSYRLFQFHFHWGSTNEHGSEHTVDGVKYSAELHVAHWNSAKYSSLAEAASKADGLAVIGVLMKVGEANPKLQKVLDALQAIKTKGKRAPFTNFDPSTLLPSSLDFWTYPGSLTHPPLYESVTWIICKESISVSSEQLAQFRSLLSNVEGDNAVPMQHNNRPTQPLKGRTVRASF
Method: as §1

hCA XII = hCA XII (Homo sapiens, UniProt O43570); experiment: stopped flow CO2 hydrase assay, hCA XII inhibition; conditions: for Ki: read-out: Ki (nM) hCAXII, Table 2, thioureas 6a-y, recombinant enzyme, 15 min preincubation, mean of at least three determinations
hCA XII, sequence (O43570 25-354): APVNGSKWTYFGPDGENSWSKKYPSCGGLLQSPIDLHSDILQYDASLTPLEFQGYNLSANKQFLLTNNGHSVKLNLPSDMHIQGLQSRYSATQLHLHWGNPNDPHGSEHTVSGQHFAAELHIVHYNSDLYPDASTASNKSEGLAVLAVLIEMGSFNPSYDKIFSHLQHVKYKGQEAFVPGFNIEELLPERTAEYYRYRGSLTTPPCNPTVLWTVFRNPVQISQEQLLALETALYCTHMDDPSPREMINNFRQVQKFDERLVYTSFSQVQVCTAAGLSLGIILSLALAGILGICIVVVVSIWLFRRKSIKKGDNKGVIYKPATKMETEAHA
Method: as §1

hCA II = hCA II (Homo sapiens, UniProt P00918); experiment: stopped flow CO2 hydrase assay, hCA II inhibition; conditions: for Ki: read-out: Ki (nM) hCAII, Table 2, thioureas 6a-y, recombinant enzyme, 15 min preincubation, mean of at least three determinations
Method: as §1

Molecule	pKi (hCA IX)	melting point	pKi (hCA I)	pKi (hCA XII)	pKi (hCA II)	other results
COc1cccc(NC(=S)NNC(=O)C2CCN(C(=O)c3ccc(S(N)(=O)=O)cc3)CC2)c1 [Compound 6k, N-(3-methoxyphenyl)-2-(1-(4-sulfamoylbenzoyl)piperidine-4-carbonyl)hydrazine-1-carbothioamide]	7.60	214 to 215 °C	6.84	7.52	7.95	
NS(=O)(=O)c1ccc(C(=O)N2CCC(C(=O)NNC(=S)Nc3cccc(F)c3)CC2)cc1 [Compound 6o, N-(3-Fluorophenyl)-2-(1-(4-sulfamoylbenzoyl)piperidine-4-carbonyl)hydrazinecarbothioamide]			6.23		6.99	Ki (hCA IX): 5.6 nM
NS(=O)(=O)c1ccc(C(=O)N2CCC(C(=O)NNC(=O)Nc3ccccc3Cl)CC2)cc1 [Compound 5b, N-(2-Chlorophenyl)-2-(1-(4-sulfamoylbenzoyl)piperidine-4-carbonyl)hydrazinecarboxamide]	7.60	214 to 215 °C	6.79	7.87	7.82	
COc1ccc(NC(=O)NNC(=O)C2CCN(C(=O)c3ccc(S(N)(=O)=O)cc3)CC2)cc1 [Compound 5q]	8.05	228 to 230 °C	6.31	8.04	7.00	
2-(1-(3-sulfamoylbenzoyl)piperidine-4-carbonyl)-N-(p-tolyl)hydrazine-1-carbothioamide [Compound 6s]						Ki (hCA IX): 9.3 nM; Ki (hCA I): 56.5 nM; Ki (hCA XII): 2.6 nM; increase in hCA XII activity as compared to the 2-methyl analog (hCA XII; versus 6r): about 8 fold; Ki (hCA II): 4.3 nM; increase in hCA II activity as compared to the 2-methyl analog (hCA II; versus 6r): about 8 fold
NS(=O)(=O)c1ccc(C(=O)N2CCC(C(=O)NNC(=S)Nc3ccccc3Cl)CC2)cc1 [Compound 6d, N-(2-Chlorophenyl)-2-(1-(4-sulfamoylbenzoyl)piperidine-4-carbonyl)hydrazinecarbothioamide]	8.09	209 to 210 °C	6.76	7.57	7.69	
NS(=O)(=O)c1ccc(C(=O)N2CCC(C(=O)NNC(=O)Nc3ccccc3)CC2)cc1 [Compound 5a]	7.78		7.03	7.64	7.53	
NS(=O)(=O)c1ccc(C(=O)N2CCC(C(=O)NNC(=O)Nc3cccc(F)c3)CC2)cc1 [Compound 5g, N-(3-fluorophenyl)-2-(1-(4-sulfamoylbenzoyl)piperidine-4-carbonyl)hydrazinecarboxamide]	7.05	214 to 215 °C	6.56	7.71	7.75	
COc1ccc(NC(=O)NNC(=O)C2CCN(C(=O)c3ccc(S(N)(=O)=O)cc3)CC2)c(OC)c1 [Compound 5r]	7.63		6.49	7.81	7.70	
Cc1cccc(C)c1NC(=S)NNC(=O)C1CCN(C(=O)c2ccc(S(N)(=O)=O)cc2)CC1 [Compound 6u, N-(2,6-Dimethylphenyl)-2-(1-(4-sulfamoylbenzoyl)piperidine-4-carbonyl)hydrazinecarbothioamide]	8.33	233 to 234 °C	6.51	8.02	7.05	
NS(=O)(=O)c1ccc(C(=O)N2CCC(C(=O)NNC(=O)Nc3ccc(Cl)cc3)CC2)cc1 [Compound 5d, N-(4-Chlorophenyl)-2-(1-(4-sulfamoylbenzoyl)piperidine-4-carbonyl)hydrazinecarboxamide]	7.03	209 to 210 °C	6.35	7.00	6.96	
NS(=O)(=O)c1ccc(C(=O)N2CCC(C(=O)NNC(=O)Nc3ccc(F)cc3)CC2)cc1 [Compound 5h]	8.68		7.22	7.62	7.92	
NS(=O)(=O)c1ccc(C(=O)N2CCC(C(=O)NNC(=S)Nc3c(F)cccc3F)CC2)cc1 [Compound 6q, N-(2,6-Difluorophenyl)-2-(1-(4-sulfamoylbenzoyl)piperidine-4-carbonyl)hydrazinecarbothioamide]	8.23	242 to 243 °C	7.18	8.25	7.55	
NS(=O)(=O)c1ccc(C(=O)N2CCC(C(=O)NNC(=S)Nc3cccc(Cl)c3)CC2)cc1 [Compound 6e, N-(3-Chlorophenyl)-2-(1-(4-sulfamoylbenzoyl)piperidine-4-carbonyl)hydrazinecarbothioamide]	7.74	226 to 227 °C	6.49	8.01	7.78	
NS(=O)(=O)c1ccc(C(=O)N2CCC(C(=O)NNC(=S)NC3CCCCC3)CC2)cc1 [Compound 6y, N-Cyclohexyl-2-(1-(4-sulfamoylbenzoyl)piperidine-4-carbonyl)hydrazinecarbothioamide]	8.77	183 to 184 °C	6.93	7.71	8.24	
NS(=O)(=O)c1ccc(C(=O)N2CCC(C(=O)NNC(=O)NCc3ccccc3)CC2)cc1 [Compound 5t]	7.40		7.11	7.70	7.32	
NS(=O)(=O)c1ccc(C(=O)N2CCC(C(=O)NNC(=S)Nc3ccc([N+](=O)[O-])cc3)CC2)cc1 [Compound 6b, N-(4-Nitrophenyl)-2-(1-(4-sulfamoylbenzoyl)piperidine-4-carbonyl)hydrazinecarbothioamide]	7.87	236 to 237 °C	6.53	7.35	7.22	selectivity on hCA IX compared to hCA I (hCA IX; hCA IX versus hCA I): about 22 fold; selectivity on hCA IX compared to hCA II (hCA IX; hCA IX versus hCA II): about 4 fold; selectivity on hCA IX compared to hCA XII (hCA IX; hCA IX versus hCA XII): ~3 fold
COc1ccccc1NC(=O)NNC(=O)C1CCN(C(=O)c2ccc(S(N)(=O)=O)cc2)CC1 [Compound 5o]	8.07	219 to 220 °C	6.35	7.71	6.73	
COc1ccc(CNC(=S)NNC(=O)C2CCN(C(=O)c3ccc(S(N)(=O)=O)cc3)CC2)cc1 [Compound 6w, N-(4-Methoxybenzyl)-2-(1-(4-sulfamoylbenzoyl)piperidine-4-carbonyl)hydrazinecarbothioamide]	7.50	240 to 241 °C	6.75	7.52	7.53	
COc1cccc(NC(=O)NNC(=O)C2CCN(C(=O)c3ccc(S(N)(=O)=O)cc3)CC2)c1 [Compound 5p, (3-Methoxyphenyl)-2-(1-(4-sulfamoylbenzoyl)piperidine-4-carbonyl)hydrazinecarboxamide]	7.62	218 to 220 °C	6.55	7.77	7.34	increase of activity on hCA II on shifting the methoxy group into 3-position (hCA II; versus methoxy analogs 5o/5q): about 2 fold
NS(=O)(=O)c1ccc(C(=O)N2CCC(C(=O)NNC(=O)Nc3c(Cl)cccc3Cl)CC2)cc1 [Compound 5e]	7.54		6.59	7.79	7.16	
NS(=O)(=O)c1ccc(C(=O)N2CCC(C(=O)NNC(=S)Nc3ccc(Cl)cc3)CC2)cc1 [Compound 6f, N-(4-Chlorophenyl)-2-(1-(4-sulfamoylbenzoyl)piperidine-4-carbonyl)hydrazinecarbothioamide]	7.58	222 to 223 °C	6.88	7.75	7.38	
NS(=O)(=O)c1ccc(C(=O)N2CCC(C(=O)NNC(=S)Nc3ccc(Cl)cc3Cl)CC2)cc1 [Compound 6h, N-(2,4-Dichlorophenyl)-2-(1-(4-sulfamoylbenzoyl)piperidine-4-carbonyl)hydrazinecarbothioamide]	7.74	220 to 221 °C	6.64	8.59	7.27	increase in hCA XII activity as compared to the 3,4-dichloro analog (hCA XII; versus 6g): ~10 fold
Cc1ccc(NC(=O)NNC(=O)C2CCN(C(=O)c3ccc(S(N)(=O)=O)cc3)CC2)cc1 [Compound 5l]	8.09		7.09	7.44	7.66	
COc1ccc(CNC(=O)NNC(=O)C2CCN(C(=O)c3ccc(S(N)(=O)=O)cc3)CC2)cc1 [Compound 5u]	7.34		6.89	8.19	7.39	selectivity for hCAXII compared with hCAII and hCAIX (hCA XII; hCA XII versus hCA II and hCA IX): about 6 fold
2-(1-(3-sulfamoylbenzoyl)piperidine-4-carbonyl)-N-(p-tolyl)hydrazine-1-carbothioamide [Compound 6t]						Ki (hCA IX): 28.4 nM; Ki (hCA I): 613 nM; Ki (hCA XII): 31 nM; Ki (hCA II): 58 nM
4-(4-(4-(4-(Trifluoromethyl)phenyl)piperazine-1-carbonyl)piperidine-1-carbonyl)benzenesulfonamide [Compound 6c]						Ki (hCA IX): 7.2 nM; Ki (hCA XII): 4.5 nM
NS(=O)(=O)c1ccc(C(=O)N2CCC(C(=O)NNC(=O)Nc3cccc(Cl)c3)CC2)cc1 [Compound 5c]	7.42		6.66	7.35	8.29	
N-(1-Phenylethyl)-2-(1-(4-sulfamoylbenzoyl)piperidine-4-carbonyl)hydrazinecarbothioamide [Compound 6x]						Ki (hCA IX): 2.9 nM; Ki (hCA I): 76.6 nM; Ki (hCA XII): 10.4 nM; Ki (hCA II): 7.6 nM

— publication PMC9457746, “Synthesis of Sulfonamides Incorporating Piperidinyl-Hydrazidoureido and Piperidinyl-Hydrazidothioureido Moieties and Their Carbonic Anhydrase I, II, IX and XII Inhibitory Activity” (Molecules, 2022)
